Patent US10960005B2, “Treatment of relapsed and/or refractory solid tumors and non-hodgkin's lymphomas” (CELGENE QUANTICEL RESEARCH, INC., priority 2016, dated 2021)

Key:
[1] = Excretion in bile duct cannulated rats (IV); format: in vivo; conditions: 24-hour period post dosing
[2] = biological target: MDR1 (human P-gp) MDCK cells (Homo sapiens (Human), UniProt P08183); assay: Permeability in MDR1 (human P-gp) MDCK cells; conditions: B→A direction
[3] = Exploratory toxicity study in dogs; format: in vivo; conditions: 0.5 mg/kg/dose QOD
[4] = system: gene expression (ST18, FREM2) in MKL-1 cells; assay: Gene expression modulation (RNA-seq, qRT-PCR) in cultured MKL-1 cells; format: cell-based, human; conditions: 10 and 100 nM, three days
Protocol: (§1) 22, 66, or 200 nM for qRT-PCR analysis.
(§2) Libraries were sequenced on an Illumina NextSeq® 500 System (Illumina, San Diego, Calif.) using 75 base paired-end RNA sequencing. Sequenced reads were mapped to the hg19 human genome build and differential expression was determined by analysis of variance across all replicates relative to the vehicle control
(§3) Sequenced reads were mapped to the hg19 human genome build using the Spliced Transcripts Alignment to a Reference (STAR) software tool (©Alexander Dobin, 2009-2016) and transcript counts were normalized using the Empirical Analysis of Digital Gene Expression Data in R (edgeR) and Differential gene expression analysis based on the negative binomial distribution (DESeq2) software tools (©Bioconductor, 2003-2017). Differential expression was determined by analysis of variance across all replicates relative to the vehicle control.

[5] = system: LU2514 SCLC patient-derived xenograft; assay: Efficacy in LU2514 HuPrime SCLC PDX model; format: in vivo, mice; conditions: Day 28
Protocol: Tumor growth inhibition analysis was performed on Day 28 post treatment, the last day of dosing.
In both studies with LU2514 animal model.

[6] = Hemodynamic and ECG parameters in anesthetized guinea pigs (IV infusion); conditions: for mean plasma concentration at end of infusion: 10 minutes
Protocol: The effects of Compound Aon hemodynamic and ECG parameters were examined in anesthetized, male Dunkin Hartley guinea pigs. […] An escalating dose design was utilized in which doses were administered sequentially at 20-minute intervals. Animals were monitored throughout the experiment.

[7] = Pharmacokinetics after single IV and oral dose, Sprague Dawley rats; format: in vivo; conditions: Rat, female
Protocol: (§4) AUClast=area under the plasma concentration-time curve from time zero to time of last measurable concentration; Cmax=maximum plasma concentration; F=oral bioavailability; hr=hour, PK=pharmacokinetic; SD=standard deviation; t1/2 z=apparent half-life of the terminal phase of the concentration-time curve; tmax=time of Cmax. In mouse, PK parameters were determined using composite plasma samples obtained from n=3animals/time point. In other species, PK parameters are from n=3 animals and values shown are mean and SD (in parentheses).

[8] = Pharmacokinetics after single IV and oral dose, CD-1 mice; format: in vivo; conditions: Mouse, female
Protocol: as §4

[9] = 4-week oral gavage toxicity study with 4-week recovery in dogs (QW/BIW); conditions: for mean AUC0-168 / mean Cmax: 0.375 mg base/kg/dose QW; for Steady state Cmax: 0.75 mg base/kg/dose QW
[10] = Pharmacokinetics after single IV and oral dose, Beagle dogs; format: in vivo; conditions: Dog, male
Protocol: as §4

[11] = system: gene expression (ST18, FREM2) in MS-1 cells; assay: Gene expression modulation (RNA-seq, qRT-PCR) in cultured MS-1 cells; format: cell-based, human; conditions: 10 and 100 nM, three days
Protocol: as §1, §2, §3

[12] = system: ST18 and FREM2 expression in MKL-1 tumors; assay: In vivo xenograft dose-response of PD biomarker gene expression, MKL-1; design: species or system mice; conditions: 1, 2.5, or 5 mg/kg PO BID ×4.5; tumors 4 h after last dose
Excerpt: Female NSG mice bearing palpable hMCC MKL-1 and MS-1 tumors were randomized into four groups of three mice each. […] The fourth group was orally administered vehicle as a control on the BID schedule. Four hours after the last dosing, tumors were collected into RNA later and stored frozen.
Total RNA was eluted in RNase-free water and analyzed by qRT-PCR.

[13] = after escalating IV doses to 20 mg base/kg
[14] = 0.375 mg base/kg/dose BIW, males, Day 22
[15] = Dogs, Day 1, 0.75 mg base/kg/dose oral once weekly, M
[16] = Dogs, Day 1, 1.5 mg base/kg/dose oral once weekly, F
[17] = Dogs, Day 1, 1.5 mg base/kg/dose oral once weekly, M
[18] = Dogs, Day 22, 0.375 mg base/kg/dose oral once weekly, F
[19] = Dogs, Day 22, 0.375 mg base/kg/dose oral once weekly, M
[20] = Dogs, Day 22, 0.375 mg base/kg/dose oral twice weekly, M
[21] = Dogs, Day 22, 0.75 mg base/kg/dose oral once weekly, F
[22] = Dogs, Day 22, 0.75 mg base/kg/dose oral once weekly, M
[23] = QW or BIW schedule, not determined

MDR1 (human P-gp) MDCK cells, sequence (P08183 whole entry): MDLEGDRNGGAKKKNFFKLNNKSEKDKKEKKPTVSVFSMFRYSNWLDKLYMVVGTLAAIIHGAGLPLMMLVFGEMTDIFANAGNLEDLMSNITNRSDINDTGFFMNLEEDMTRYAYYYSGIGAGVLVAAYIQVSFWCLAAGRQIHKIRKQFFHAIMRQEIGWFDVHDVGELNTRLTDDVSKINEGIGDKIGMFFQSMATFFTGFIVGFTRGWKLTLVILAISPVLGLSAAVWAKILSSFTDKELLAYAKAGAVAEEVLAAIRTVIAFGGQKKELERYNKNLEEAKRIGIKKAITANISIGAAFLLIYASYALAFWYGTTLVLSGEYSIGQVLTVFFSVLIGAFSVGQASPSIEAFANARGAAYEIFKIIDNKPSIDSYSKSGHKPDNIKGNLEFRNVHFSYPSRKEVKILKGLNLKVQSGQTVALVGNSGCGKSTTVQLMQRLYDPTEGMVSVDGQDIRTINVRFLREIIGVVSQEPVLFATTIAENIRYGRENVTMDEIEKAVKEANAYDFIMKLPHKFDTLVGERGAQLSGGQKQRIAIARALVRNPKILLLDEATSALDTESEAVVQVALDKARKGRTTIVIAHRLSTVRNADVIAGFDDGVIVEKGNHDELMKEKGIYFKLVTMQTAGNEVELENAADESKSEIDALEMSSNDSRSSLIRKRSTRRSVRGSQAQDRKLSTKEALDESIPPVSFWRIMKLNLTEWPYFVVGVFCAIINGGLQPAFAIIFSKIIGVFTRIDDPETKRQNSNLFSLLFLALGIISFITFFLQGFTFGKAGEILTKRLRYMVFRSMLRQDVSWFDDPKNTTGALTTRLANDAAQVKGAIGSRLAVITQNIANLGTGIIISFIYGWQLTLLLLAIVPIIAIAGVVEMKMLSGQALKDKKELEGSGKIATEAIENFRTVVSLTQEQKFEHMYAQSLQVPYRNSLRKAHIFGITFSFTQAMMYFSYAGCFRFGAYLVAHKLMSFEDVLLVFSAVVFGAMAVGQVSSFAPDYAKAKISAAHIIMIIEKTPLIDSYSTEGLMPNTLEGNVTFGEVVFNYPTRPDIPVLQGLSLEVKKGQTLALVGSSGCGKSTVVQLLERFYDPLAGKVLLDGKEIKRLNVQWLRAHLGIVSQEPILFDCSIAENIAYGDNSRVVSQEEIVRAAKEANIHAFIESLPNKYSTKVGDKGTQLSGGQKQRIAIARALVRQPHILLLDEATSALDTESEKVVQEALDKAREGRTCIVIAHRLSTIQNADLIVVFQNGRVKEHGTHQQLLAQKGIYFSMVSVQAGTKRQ

COc1ccc(-c2c(-c3ccc(C#N)c(F)c3)nc(N3CCC(N)CC3)n(C)c2=O)cc1F [Compound A]
dose excreted intact in urine [1]: 8.5 % of dose | permeability [2]: 16.5 ×10⁻⁶ cm/s | primary findings [3]: Marked thrombocytopenia and acute hemorrhage in mesenteric and mandibular lymph nodes | ST18 and FREM2 gene expression changes (upregulated) [4]: at least 2 fold | % TGI ([5]; 5 mg base/kg PO QD × 28): 43% | % TGI ([5]; 10 mg base/kg PO QD × 28): 61% | mean plasma concentration at end of infusion ([6]; 15 mg base/kg IV): 4269 ng/mL | mean plasma concentration at end of infusion ([6]; 20 mg base/kg IV): 6707 ng/mL | maximum decrease in HR vs vehicle ([6]; 20 mg base/kg IV, 9 minutes into 10-minute infusion): 19% | decrease in heart rate at end of monitoring period [6, 13]: 18% | increase of QTcB interval at end of monitoring period [6, 13]: 10% | AUC∞ ([7]; single IV 5 mg base/kg): 733 ng·h/mL | CL ([7]; single IV 5 mg base/kg): 115 mL/min/kg | Vss ([7]; single IV 5 mg base/kg): 0.2625 L/kg | t1/2,z ([7]; single IV 5 mg base/kg): 3.6 h | % F ([7]; single oral 5 mg base/kg): 33% | AUClast ([7]; single oral 5 mg base/kg): 222 ng·h/mL | Cmax ([7]; single oral 5 mg base/kg): 47 ng/mL | t1/2,z ([7]; single oral 5 mg base/kg): 3.0 h | tmax ([7]; single oral 5 mg base/kg): 2.0 h | % F ([7]; single oral 15 mg base/kg): 28% | AUClast ([7]; single oral 15 mg base/kg): 570 ng·h/mL | Cmax ([7]; single oral 15 mg base/kg): 123 ng/mL | t1/2,z ([7]; single oral 15 mg base/kg): 2.9 h | tmax ([7]; single oral 15 mg base/kg): 2.0 h | % F ([7]; single oral 50 mg base/kg): 74% | AUClast ([7]; single oral 50 mg base/kg): 4652 ng·h/mL | Cmax ([7]; single oral 50 mg base/kg): 621 ng/mL | t1/2,z ([7]; single oral 50 mg base/kg): 3.0 h | tmax ([7]; single oral 50 mg base/kg): 6.0 h | AUC∞ ([8]; single IV 5 mg base/kg): 2664 ng·h/mL | CL ([8]; single IV 5 mg base/kg): 32 mL/min/kg | Vss ([8]; single IV 5 mg base/kg): 7.51 L/kg | t1/2,z ([8]; single IV 5 mg base/kg): 3.8 h | % F ([8]; single oral 10 mg base/kg): 38% | Cmax ([8]; single oral 10 mg base/kg): 510 ng/mL | t1/2,z ([8]; single oral 10 mg base/kg): 1.7 h | tmax ([8]; single oral 10 mg base/kg): 0.5 h | Cmax ([9]; 0.375 mg base/kg/dose BIW, females, Day 22): 19.0 ng/mL | Cmax [9, 14]: 17.7 ng/mL | mean AUC0-72 [9, 14]: 307 ng·h/mL | mean AUC0-168 ([9]; females, Day 22): 269 ng·h/mL | mean Cmax ([9]; females, Day 22): 15.5 ng/mL | mean AUC0-168 ([9]; males, Day 22): 384 ng·h/mL | mean Cmax ([9]; males, Day 22): 21.9 ng/mL | Steady state Cmax ([9]; females): 40.8 ng/mL | Steady state Cmax ([9]; males): 36.2 ng/mL | AUC0-168 ([9]; Dogs, Day 1, 0.375 mg base/kg/dose oral once weekly, M): 503 ng·h/mL | AUC0-72 ([9]; Dogs, Day 1, 0.375 mg base/kg/dose oral twice weekly, M): 420 ng·h/mL | AUC0-168 ([9]; Dogs, Day 1, 0.75 mg base/kg/dose oral once weekly, F): 1180 ng·h/mL | AUC0-168 [9, 15]: 955 ng·h/mL | Cmax [9, 15]: 34 ng/mL | AUC0-168 [9, 16]: 2680 ng·h/mL | Cmax [9, 16]: 80.0 ng/mL | AUC0-168 [9, 17]: 2530 ng·h/mL | Cmax [9, 17]: 90.6 ng/mL | AUC0-168 [9, 18]: 269 ng·h/mL | Cmax [9, 18]: 15.5 ng/mL | AUC0-168 [9, 19]: 384 ng·h/mL | Cmax [9, 19]: 21.9 ng/mL | Cmax ([9]; Dogs, Day 22, 0.375 mg base/kg/dose oral twice weekly, F): 19.0 ng/mL | AUC0-72 [9, 20]: 307 ng·h/mL | Cmax [9, 20]: 17.7 ng/mL | AUC0-168 [9, 21]: 719 ng·h/mL | Cmax [9, 21]: 40.8 ng/mL | AUC0-168 [9, 22]: 645 ng·h/mL | Cmax [9, 22]: 36.2 ng/mL | HNSTD [9, 23]: < 0.375 mg base/kg/dose | NOAEL [9, 23]: < 0.375 mg base/kg/dose | moribund euthanasia ([9]; weekly oral 0.375-1.5 mg base/kg/dose, between study Days 13 and 23): 11 animals | primary toxicities ([9]; ≥0.375 mg base/kg/dose, QW or BIW): mucosal ulceration, acute and/or subacute inflammation, and mucosal epithelial atrophy ofGI tract tissues | AUC∞ ([10]; single IV 1 mg base/kg): 1944 ng·h/mL | CL ([10]; single IV 1 mg base/kg): 9 mL/min/kg | Vss ([10]; single IV 1 mg base/kg): 11.058 L/kg | t1/2,z ([10]; single IV 1 mg base/kg): 15.5 h | % F ([10]; single oral 1 mg base/kg): 84% | AUClast ([10]; single oral 1 mg base/kg): 1089 ng·h/mL | Cmax ([10]; single oral 1 mg base/kg): 69 ng/mL | t1/2,z ([10]; single oral 1 mg base/kg): 15.0 h | tmax ([10]; single oral 1 mg base/kg): 2.0 h | % F ([10]; single oral 3 mg base/kg): 100% | AUClast ([10]; single oral 3 mg base/kg): 3792 ng·h/mL | Cmax ([10]; single oral 3 mg base/kg): 298 ng/mL | t1/2,z ([10]; single oral 3 mg base/kg): 19.4 h | tmax ([10]; single oral 3 mg base/kg): 1.0 h | % F ([10]; single oral 6 mg base/kg): 100% | AUClast ([10]; single oral 6 mg base/kg): 8792 ng·h/mL | Cmax ([10]; single oral 6 mg base/kg): 627 ng/mL | t1/2,z ([10]; single oral 6 mg base/kg): 17.8 h | tmax ([10]; single oral 6 mg base/kg): 1.0 h | ST18 and FREM2 gene expression changes (upregulated) [11]: at least 2 fold | ST18 and FREM2 change in gene expression in vivo [12]: ≥ 2 fold
